Experimental data taken from patent US20080139596A1, “Modulators of Hcv Replication” (priority 2004, published 2008).

What was measured:
[1] = test system: hyperphosphorylated NS5A (p58) in HB68 cells; assay: NS5A hyperphosphorylation assay (radiolabelling, immunoprecipitation, SDS-PAGE); format: cell-based, Hepatitis C virus; settings: 5 μM; for formation of the hyperphosphorylated form of NS5A (p58) / NS5A phosphorylation: 35S-methionine or 32P-orthophosphate labelling
Method: The presence of hyperphosphorylated NS5A (p58) was evaluated in Huh7-HB68 cells. Proteins were labeled either with ^35S-methionine (lanes 2-5) or with ^32P-orthophosphate (lanes 7-10) in the presence of DMSO (lanes 2 and 7) or with 5 μM of Compound (1) (lanes 3 and 8), Compound (2) (lanes 4 and 9) or SB203580 (lanes 5 and 10). After the radiolabelling, protein extract was prepared, NS5A was immunoprecipitated and proteins were loaded on a 7.5% SDS-PAGE and autoradiographed. The sizes of molecular weight marker proteins are indicated in lanes 1 and 6.
Inhibition of NS5A hyperphosphorylation in intact cells was measured by determining the amount of hyperphosphorylated NS5A (p58) in cells expressing HCV NS5A in the context of a polyprotein comprising at least NS3, NS4A, NS4B, and NS5A (Neddermann et al., J Virol 73, 9984-9991, 1999). […] HBI10 and HB68 are Huh-7 derived-cell lines described in WO2002/059321.
Hyperphosphorylated NS5A was detected as a protein that i) migrates with an apparent molecular weight of about 58 kDa in SDS PAGE, and ii) is immunoreactive with anti-NS5A antibodies. Thus, the amount of hyperphosphorylated NS5A was detected by immunoprecipitation of radioactively labeled proteins.
HBI10 or HB68 were cultured in Dulbecco's modified Eagle medium (DMEM) supplemented with 10% fetal bovine serum (FBS) in the presence of 0.8 mg/ml of G418 (Geneticin; Gibco/BRL). For starvation prior to radioactive protein labeling, minimal essential medium without methionine (Gibco/BRL) was used. For protein labeling, 100 μCi/ml of ^35S-labelled methionine (Promix, Amersham, Cat. No. SJQ0079, 1000 Ci/mmole) was added to the cells.
• 1. HBI10 or HB68 cells were grown to 80% confluency in 6-well plates. • 2. Compound to be tested, dissolved in DMSO at 100× concentration, was added to each well. • 3. One hour later, the medium was removed and replaced with Minimal Essential Medium without methionine. This step is omitted in the case of 32P-orthophosphate labeling. • 4. Compound to be tested, dissolved in DMSO at 100× concentration, was freshly added to each well. • 5. One hour later 100 μCi of ^35S-labelled methionine per ml of Minimal Essential Medium without methionine was added to each well for 35S-metabolic labeling together with the compound to be tested, dissolved in DMSO at 100× concentration. In the case of 32P-labelling, cells were washed once with Dulbecco's modified Eagle's medium without phosphate (ICN) and labeled for 4 hours in the same medium containing 500 μCi/ml of [32P]-orthophosphate (285.5 Ci/mg, NEN) together with the compound to be tested, dissolved in DMSO at 100× concentration. • 6. After 4 hours, cells were harvested from each well and individual cell extracts were prepared in 100 μl of cell lysis buffer. • 7. […]

wild type Con1 replicon = assay: Beta-lactamase gene reporter assay (BLA-assay), replicon electroporated in 10A-IFN cells; format: cell-based, Hepatitis C virus; settings: 8 μM, added two hours after electroporation, 4 days of incubation
Method: The BLA-assay was performed after 4 days of incubation in the presence of the compounds to be tested according to Murray et al., J Virol 77, 2928-35, 2003. Briefly, medium was removed, and cells were stained for 90 min with CCF4-AM (Aurora Biosciences Corp.) in Dulbecco's modified Eagle's medium supplemented with 25 mM HEPES, pH 8.0. For quantitation of the fraction of cells harboring bla replicons, cells were photographed by using a digital charge-coupled device color camera and green and blue cells were counted. Another method for measuring beta-lactamase activity is using a fluorescence plate reader that quantitates the amount of green (530 nm) or blue (460 nm) fluorescence emitted by cells stimulated with light of 405 nm.
A subgenomic replicon was used in which the original neomycin phosphotransferase (neo) gene was replaced by the β-lactamase (bla) gene (WO2003089672 A1 and Murray et al., J Virol 77, 2928-2935, 2003). Cells actively replicating HCV express β-lactamase and show a fluorescent blue staining after incubation with a diffusible β-lactamase substrate (BLA-assay). Replicon RNA was electroporated in 10A-IFN cells and compounds were added at a concentration of 8 μM two hours after electroporation. The BLA-assay was performed after 4 days of incubation in the presence of the compounds to be tested according to Murray et al., J Virol 77, 2928-35, 2003. Briefly, medium was removed, and cells were stained for 90 min with CCF4-AM (Aurora Biosciences Corp.) in Dulbecco's modified Eagle's medium supplemented with 25 mM HEPES, pH 8.0. For quantitation of the fraction of cells harboring bla replicons, cells were photographed by using a digital charge-coupled device color camera and green and blue fluorescent cells were counted. Alternatively, fluorescence was measured by using a CytoFluor 4000 fluorescence plate reader.
The control compound SB203580 had no effect on HCV replication.

wt Con1 replicon [2] = format: cell-based; settings: 8 μM; 4 days of incubation; wt Con1 replicon in 10A-IFN cells
[3] = test system: replicon m17 (E1202G in NS3); format: cell-based; settings: 8 μM; 4 days of incubation; replicon m17 in 10A-IFN cells
[4] = test system: subgenomic replicons with the synergistic mutation in NS3 (m17); assay: HCV-specific RNA by real-time reverse transcription PCR (TaqMan) in 10A-IFN cells; format: cell-based, Hepatitis C virus; settings: 8 μM; 4 days; m17 replicon in 10A-IFN cells; quantitative PCR
Method: (§1) RNA was transcribed from the plasmids wt, wt-GAA, m17, SA, m17/SA and m17-GAA and electroporated into 10A-IFN cells. Cells were incubated for four days without or with 8 μM of Compound (1), Compound (2) or SB203580.
(§2) (A) HCV-specific RNA analysis using quantitative RT-PCR. Total cellular RNA was extracted and HCV-specific RNA was quantified as described in Materials and Methods. On the Y-axis is shown the fold-induction with respect to the DMSO control (black bar), Compound (1) (dark grey bar), Compound (2) (light grey bar) or SB203580 (dotted bar). Replicon RNA is indicated at the bottom of the figure.
(§3) Replicon RNA was extracted from selected clones either using the Qiagen RNAeasy minikit following manufacturer instructions or as described by Chomczynski et al., 1987. Anal. Biochem. 162, 156-159. TaqMan analysis was typically performed using 10 ng of RNA in a reaction mix (TaqMan Gold RT-PCR kit, Perkin Elmer Biosystems) either with HCV specific oligos/probe (as disclosed in published International application WO02/059321) or with human beta-actin specific oligos/probe (Pre-Developed TaqMan Assay Reagents, Endogenous Control Human beta-actin, Part Number 4310881E, Applied Biosystems). PCR was performed using a Perkin Elmer ABI PRISM 7700 under the following conditions: 30 minutes at 48° C. (the RT step), 10 minutes at 95° C. and 40 cycles: 15 seconds at 95° C. and 1 minute at 60° C. Quantitative calculations were obtained using the Comparative CT Method (described in User Bulletin #2, ABI PRISM 7700 Sequence Detection System, Applied Biosystem, December 1997) considering the level of GAPDH mRNA constant. All calculations of HCV RNA are expressed as fold difference over a specific control.
(§4) A similar experiment was carried out in order to detect HCV-specific RNA using real-time reverse transcription PCR amplification (FIG. 2A). […] Compound (1) induced replication of wt Con1 replicon 6-fold as measured by quantitative PCR, whereas induction of replication by the other compounds was below background (wt). […]

[5] = test system: Con1 replicon carrying the adaptive mutation S2204I (SI); format: cell-based, Hepatitis C virus; settings: SI replicon (low amounts of hyperphosphorylated NS5A); 10A-IFN cells; 4 days; Cell-ELISA; read-out: IC50, inhibition of HCV replication
[6] = test system: Con1 replicon carrying the adaptive mutation A2199T (AT); format: cell-based, Hepatitis C virus; settings: AT replicon (high amounts of hyperphosphorylated NS5A); 10A-IFN cells; 4 days; Cell-ELISA; read-out: IC50, inhibition of HCV replication
wt Con1 replicon [7] = assay: HCV-specific RNA by real-time reverse transcription PCR (TaqMan) in 10A-IFN cells; format: cell-based, Hepatitis C virus; settings: 8 μM; 4 days; wt Con1 replicon in 10A-IFN cells; quantitative PCR
Method: as §1, §2, §3, §4

Compound	formation of the hyperphosphorylated form of NS5A (p58) / NS5A phosphorylation [1]	HCV replication (fluorescent blue cells, BLA-assay) (wild type Con1 replicon)	presence of NS5A by immunoblot (wt Con1 replicon [2])	activation of replication (NS5A by immunoblot) [3]	fold-induction of HCV-RNA with respect to the DMSO control [4] [fold]	IC50 [5] [nM]	IC50 [6] [nM]	fold-induction of HCV-RNA with respect to the DMSO control (wt Con1 replicon [7]) [fold]	NS5A expression [1]
CN1CCC(c2nc(-c3ccncc3)c(-c3ccc(F)cc3)[nH]2)CC1 [Compound (2), 4-[5-(4-fluorophenyl)-2-(1-methylpiperidin-4-yl)-1H-imidazol-4-yl]pyridine]	inhibited the formation of the hyperphosphorylated form of NS5A	resulted in the production of fluorescent blue cells	no protein was visible	less potent activator	58	500	5000	–	–
CNc1nccc(-c2[nH]c(C3CCNCC3)nc2-c2cccc(C(F)(F)F)c2)n1 [Compound (1), N-methyl-4-{2-piperidin-4-yl-4-[3-(trifluoromethyl)phenyl]-1H-imidazol-5-yl}pyrimid-2-amine]	inhibited the formation of the hyperphosphorylated form of NS5A	resulted in the production of fluorescent blue cells	NS5A could be detected	more potent	312	500	5000	6	–
C[S+]([O-])c1ccc(-c2nc(-c3ccncc3)c(-c3ccc(F)cc3)[nH]2)cc1 (stereo not shown) [SB203580, reference compound]	no effect	no effect	no NS5A was visible	–	–	–	–	–	no effect
